Source: ChEMBL document CHEMBL5032511, “Improving Druggability of Novel Diarylpyrimidine NNRTIs by a Fragment-Based Replacement Strategy: From Biphenyl-DAPYs to Heteroaromatic-Biphenyl-DAPYs” (J Med Chem, 2021)

Tests used:
[1] = tested on: Human immunodeficiency virus 1; test: Anti-viral activity against HIV1 harboring RT L100I mutant infected […] cells assessed as protection against virus-induced cytopathic effect by MTT assay; type: functional, organism-based; details: Human immunodeficiency virus 1, MT4
[2] = tested on: Human immunodeficiency virus 1; test: Anti-viral activity against HIV1 harboring RT E138K mutant infected […] cells assessed as protection against virus-induced cytopathic effect by MTT assay; type: functional, organism-based; details: Human immunodeficiency virus 1, MT4
[3] = Cytotoxicity against mock infected human MT4 cells by MTT assay
[4] = molecular target: Human immunodeficiency virus type 1 reverse transcriptase (Human immunodeficiency virus 1, UniProt Q72547); test: Inhibition of recombinant wild-type HIV1 p66/p51 reverse transcriptase assessed as inhibition of [3H][…] incorporation using poly (rA) as templates incubated for 40 mins by spectrofluorometer
[5] = Selectivity index, ratio of CC50 for mock infected human MT4 cells to IC50 for HIV1 IIIB infected human MT4 cells
[6] = tested on: Human immunodeficiency virus 1; test: Anti-viral activity against HIV1 harboring RT K103N mutant infected […] cells assessed as protection against virus-induced cytopathic effect by MTT assay; type: functional, organism-based; details: Human immunodeficiency virus 1, MT4
[7] = tested on: Human immunodeficiency virus 1; test: Anti-viral activity against HIV1 harboring RT Y188L mutant infected […] cells assessed as protection against virus-induced cytopathic effect by MTT assay; type: functional, organism-based; details: Human immunodeficiency virus 1, MT4
[8] = tested on: Human immunodeficiency virus 1; test: Anti-viral activity against HIV1 harboring RT Y181C mutant infected […] cells assessed as protection against virus-induced cytopathic effect by MTT assay; type: functional, organism-based; details: Human immunodeficiency virus 1, MT4
[9] = tested on: Human immunodeficiency virus 1; test: Antiviral activity against HIV1 IIIB infected human MT4 cells assessed as protection against virus-induced cytopathic effect by MTT assay; type: functional, organism-based; details: Human immunodeficiency virus 1, IIIB

Compound	EC50 [1] [nM]	EC50 [2] [nM]	CC50 [3] [nM]	IC50 [4] [nM]	selectivity ratio [5]	EC50 [6] [nM]	EC50 [7] [nM]	EC50 [8] [nM]	EC50 [9] [nM]
Cc1cc(-c2cc(F)c(Nc3ccnc(Nc4ccc(C#N)cc4)n3)c(F)c2)ccn1	383	52	3200	29	777	77.7	1090	144	4.1
O=C1Nc2ccc(Cl)cc2[C@@](C#CC2CC2)(C(F)(F)F)O1 [EFAVIRENZ]	–	7.5	> 6330	–	–	–	269	–	–
N#Cc1ccc(Nc2nccc(Nc3c(F)cc(-c4ccnc(-c5ccnc(Cl)c5)c4)cc3F)n2)cc1	1150	160	51000	110	3070	176	–	779	16.8
N#Cc1ccc(Nc2nccc(Nc3c(F)cc(-c4ccnc(Cl)c4Cl)cc3F)n2)cc1	325	39	20000	16	3670	48	1640	73	5.5
N#Cc1ccc(Nc2nccc(Nc3c(F)cc(-c4ccoc4)cc3F)n2)cc1	100	13	10600	10	3290	35	2180	114	3.2
N#Cc1ccc(Nc2nccc(Nc3c(F)cc(-c4cccs4)cc3F)n2)cc1	363	11	> 308000	5.9	> 74600	102	1130	136	4.1
N#Cc1ccc(Nc2nccc(Nc3c(F)cc(-c4cc(Cl)nc(Cl)c4)cc3F)n2)cc1	–	311	5400	96	97	1090	–	–	56
N#Cc1ccc(Nc2nccc(Nc3c(F)cc(-c4cncnc4)cc3F)n2)cc1	1790	137	2700	87	229	326	–	–	11.9
Cc1cc(-c2cc(F)c(Nc3ccnc(Nc4ccc(C#N)cc4)n3)c(F)c2)cc(C)n1	–	–	1200	336	21	–	–	–	56
N#Cc1ccc(Nc2nccc(Nc3c(F)cc(-c4cccnc4)cc3F)n2)cc1	583	149	242000	58	32700	223	–	473	7.4
N#Cc1ccc(Nc2nccc(Nc3c(F)cc(-c4cn[nH]c4)cc3F)n2)cc1	–	101	3100	43	298	251	–	–	10
COc1cc(-c2cc(F)c(Nc3ccnc(Nc4ccc(C#N)cc4)n3)c(F)c2)ccn1	645	260	6700	30	501	239	–	389	13
Cc1ccnc2c1NC(=O)c1cccnc1N2C1CC1 [NEVIRAPINE]	–	288	> 15000	–	–	–	–	–	–
Cc1cc(C#Cc2ccccn2)cc(C)c1Oc1ccnc(Nc2ccc(C#N)cc2)n1	–	–	–	–	–	–	–	–	3
N#Cc1ccc(Nc2nccc(Nc3c(F)cc(-c4cc(F)nc(F)c4)cc3F)n2)cc1	898	57	11000	13	1970	199	–	476	5.6
Cc1cc(C#Cc2ccccc2)cc(C)c1Oc1ccnc(Nc2ccc(C#N)cc2)n1	–	–	–	–	–	–	–	–	38
N#Cc1ccc(Nc2nccc(Nc3c(F)cc(-c4ccncc4)cc3F)n2)cc1	20.4	4	–	7.4	–	8	417	15	–
